Experimental findings from US11396531B2, “Antimicrobial peptides comprising epsilon lysine residues” (priority 2016, dated 2022) are described below.

Converted amounts (≈) assume the structure as drawn. No end group written: not given here.

In assay [1] the test system is F. solani and F. oxysporum. The experiment in a line: Minimum inhibitory concentration (MIC) determination, Fusarium strains. It is filed as cell-based. To be noted: F. solani and F. oxysporum (n = 6). The protocol: MIC of cationic polymers and polypeptide were tested in accordance with the Clinical and Laboratory Standards Institute (CLSI) guidelines against a panel of antibiotic-susceptible/-resistant bacteria, yeasts and fungal strains. Bacterial and yeast strains were cultured on tryptic soy agar (TSA) and Sabaroud dextrose agar (SDA) plates (Neogen Corporation, MI, USA) overnight respectively. Inocula in Mueller-Hinton broth (MHB) for bacteria and SD broth for C. albicans (Beckton Dickinson, MD, USA) were prepared at 0.5 McFarland. The suspensions were then diluted to a final concentration of 10^5 CFU/ml in a 96-well microtitre plate (SPL Life Sciences Co., Ltd, Korea). Polymers and polypeptides were added to the inoculum in 2-fold serial dilutions to give a range of concentrations from 2-1024 μg/ml. […] The antimicrobial activities were compared with topical antiseptic agents, BAK and CHX. […] MIC of the polymers and polypeptides against Fusarium strains was determined in full strength RPMI-1640 buffer. […] The absorbance value was measured at 600 nm as before and the lowest concentration of the peptide which inhibited 90% growth was reported. […]
(§1) MICs of polymers/antibiotics were determined using the microdilution method in 96 well microtitre plates (SPL Life Sciences Co., Ltd, Korea), following the guidelines of Clinical and Laboratory Standards Institute (CLSI) document M100-S18. […]

Assay [2] relates to P. aeruginosa. Format: cell-based, Pseudomonas aeruginosa. To be noted: P. aeruginosa (n = 22). As to the method: (§2) MIC of cationic polymers and polypeptide were tested in accordance with the Clinical and Laboratory Standards Institute (CLSI) guidelines against a panel of antibiotic-susceptible/-resistant bacteria, yeasts and fungal strains. Bacterial and yeast strains were cultured on tryptic soy agar (TSA) and Sabaroud dextrose agar (SDA) plates (Neogen Corporation, MI, USA) overnight respectively. Inocula in Mueller-Hinton broth (MHB) for bacteria and SD broth for C. albicans (Beckton Dickinson, MD, USA) were prepared at 0.5 McFarland. The suspensions were then diluted to a final concentration of 10^5 CFU/ml in a 96-well microtitre plate (SPL Life Sciences Co., Ltd, Korea). Polymers and polypeptides were added to the inoculum in 2-fold serial dilutions to give a range of concentrations from 2-1024 μg/ml. […] The antimicrobial activities were compared with topical antiseptic agents, BAK and CHX. A similar protocol was used to determine the MIC of εPL against antibiotic-resistant pathogens. MIC of the polymers and polypeptides against Fusarium strains was determined in full strength RPMI-1640 buffer. Fungal spores were recovered from a 5-day old culture on a potato dextrose agar and diluted to a concentration of 10^5 spores/ml in 0.9% saline solution. A further 50-fold dilution was done in RPMI-1640 buffer and 100 μl of the inoculum was added to 96 well plates containing an equal volume of test peptides at 2-fold serial dilutions. 200 μl of inoculum without any additives and buffer alone served as positive and negative controls, respectively. The plate was then incubated at 30° C. for 48 h. The absorbance value was measured at 600 nm as before and the lowest concentration of the peptide which inhibited 90% growth was reported. All MIC determinations were performed in duplicates.
as §1

In assay [3] the test system is S. aureus. As to the kind of experiment: microbe, parasite or virus in culture. To be noted: S. aureus (n = 6). It is filed as cell-based, Staphylococcus aureus. As to the method: as §2
(§3) MICs of polymers/antibiotics were determined using the microdilution method in 96 well microtitre plates (SPL Life Sciences Co., Ltd, Korea), following the guidelines of Clinical and Laboratory Standards Institute (CLSI) document M100-S18. Briefly, polymers (1-512 μg/ml) or antibiotics were dissolved in appropriate media (Mueller Hinton broth, MHB for bacteria; Sabaroud's Dextrose (SD) broth for yeasts and RPMI buffer for Fusarium strains) and 100 μl of this was then mixed with an equal volume of microbial inoculum (OD600=˜0.08) in the same media and shaken in a closed incubator.

Assay [4] relates to K. pneumoniae. As to the kind of experiment: microbe, parasite or virus in culture. It is filed as cell-based, Klebsiella pneumoniae. To be noted: K. pneumonia (n = 4). The protocol: as §2, §3
For assay [5], the system named is E. coli. The experiment in a line: microbe, parasite or virus in culture. It is filed as cell-based, Escherichia coli. To be noted: E. coli (n = 3). As to the method:
as §2, §3

The subject of assay [6] is A. baumannii. The experiment in a line: microbe, parasite or virus in culture. To be noted: A. baumanii (n = 3). As to the method:
as §2, with “Korea).” for “Korea). Polymers and polypeptides were added to the inoculum in 2-fold serial dilutions to give a range of concentrations from 2-1024 μg/ml.”
as §3

The test system of assay [7] is Carbapenam-resistant Enterobacter strains (CRE). The experiment in a line: microbe, parasite or virus in culture. To be noted: CRE strains (n = 4). The protocol: as §2, with “Korea).” for “Korea). Polymers and polypeptides were added to the inoculum in 2-fold serial dilutions to give a range of concentrations from 2-1024 μg/ml.”
as §3

Assay [8] concerns E. cloacae complex. As to the kind of experiment: microbe, parasite or virus in culture. To be noted: E. clocae complex (n = 4). As to the method: as §2, with “Korea).” for “Korea). Polymers and polypeptides were added to the inoculum in 2-fold serial dilutions to give a range of concentrations from 2-1024 μg/ml.”
as §3

Assay [9] concerns MRSA. It is filed as cell-based, Staphylococcus aureus. To be noted: MRSA (n = 9). As to the method: as §2, §3
Assay [10] has as its system C. albicans. The conditions noted are these: C. albicans (n = 5). As to the method:
as §2, with “Korea).” for “Korea). Polymers and polypeptides were added to the inoculum in 2-fold serial dilutions to give a range of concentrations from 2-1024 μg/ml.”
as §3

For assay [11], the system named is Vancomycin-resistant Enterococcus (VRE). To be noted: VRE (n = 3). As to the method: as §2, with “Korea).” for “Korea). Polymers and polypeptides were added to the inoculum in 2-fold serial dilutions to give a range of concentrations from 2-1024 μg/ml.”
as §3

Assay [12] has as its system P. aeruginosa ATCC 9027. As to the kind of experiment: Antimicrobial activity of the peptides in trypsin. Format: cell-based, Pseudomonas aeruginosa. To be noted: trypsin:peptide 1:100, 37° C. The protocol:
To determine the antimicrobial activity of the peptides in the presence of proteases, 1 mg/ml of HC1 and HC2 were incubated with trypsin enzyme:peptide weight ratio 1:100) for 1 h at 37° C. After this, a 20 μl aliquot of this solution was mixed 180 μl of bacterial inoculum (P. aeruginosa ATCC 9027, 10^5 CFU/ml in MHB) and incubated at room temperature for 6 h. 100 μL aliquots of the suspension was diluted serially (10-fold) in 10 mM PBS solution and pour plated on MH agar plates and incubated at 37° C. for 48 h and colony forming units per ml (CFU/ml) are enumerated.

The test system of assay [13] is T-cell lymphomas (HuT78, MJ, HH) and B-cell lymphomas (Ly-4 and Ly-18). The experiment in a line: Anticancer properties of hypercharged peptides (MTS). Format: cell-based, human. To be noted: 62.5-500 μg/ml. As to the method:
The hyper-charged peptides were screened for their anticancer properties using cell lines derived from patients with various forms of cutaneous lymphomas, including T-cell lymphomas (HuT78, MJ, HH) and B-cell lymphomas (Ly-4 and Ly-18). The relative cytotoxicity of these peptides was also assessed in healthy primary peripheral blood lymphocyte (PBL) T-cells. Cytotoxicity was measured as the mitochondrial function by metabolic reduction of MTS.

The compound `C[C@@H]1C/C=C/C=C/C=C/C=C/[C@H](O[C@@H]2O[C@H](C)[C@@H](O)[C@H](N)[C@@H]2O)C[C@@H]2O[C@](O)(C[C@@H](O)C[C@H]3O[C@@H]3/C=C/C(=O)O1)C[C@H](O)[C@H]2C(=O)O` [Natamycin] gave an MIC in assay [1] of 8000 to 16000 µg/mL (≈ 12000 to 24000 µM).
For the compound KRKRKRKRKRKR [HC1, KRKRKRKRKRKR], the MIC in assay [2] was 32 to 128 µg/mL; in [3], 32 to 64 µg/mL; in [4], 64 µg/mL; in [5], 16 µg/mL; in assay [6] it was 64 to 128 µg/mL; in [7] it was 64 to 128 µg/mL. The MIC in assay [8] is 64 to 128 µg/mL; in assay [9] it was 16 to 64 µg/mL; in assay [10], 64 to 128 µg/mL; in assay [11], 16 to 32 µg/mL. For the same compound, the “decrease in the bacterial viability after incubation with trypsin for 1 hour” value in assay [12] was “complete loss of activity”. For the same compound, in assay [13], the “cell killing in lymphoma cell lines” value is “varying degrees of cell killing”.
For the compound `N=C(N)NCCC[C@@H](NC(=O)[C@@H](N)CCCCNC(=O)[C@@H](CCCNC(=N)N)NC(=O)[C@@H](N)CCCCNC(=O)[C@@H](CCCNC(=N)N)NC(=O)[C@@H](N)CCCCNC(=O)[C@@H](CCCNC(=N)N)NC(=O)[C@@H](N)CCCCNC(=O)[C@@H](CCCNC(=N)N)NC(=O)[C@@H](N)CCCCNC(=O)[C@@H](CCCNC(=N)N)NC(=O)[C@@H](N)CCCCN)C(=O)O` [HC4, KrKrKrKrKrKr], the MIC is 16 to 64 µg/mL in [2]; 32 µg/mL (≈ 18.6 µM) in assay [3]; 16 to 128 µg/mL in assay [4]; 16 µg/mL (≈ 9.28 µM) in assay [5]; 16 to 32 µg/mL in assay [6]; 64 to 128 µg/mL in assay [7]. Also, the MIC in assay [8] was 64 to 128 µg/mL; in [9], 16 to 64 µg/mL; in assay [10], 16 to 32 µg/mL; in assay [11], 16 µg/mL (≈ 9.28 µM). In addition, the “cell killing in lymphoma cell lines” value in [13] is listed as “varying degrees of cell killing”.
